# Reference: patent US11564911B2, “Small molecule dual-inhibitors of TRPV4 and TRPA1 for sanitizing and anesthetizing” (Duke University, priority 2016, dated 2023)
# How the values were obtained:
# [1] = test system: primary mouse keratinocytes (1° MK); experiment: ET1 secretion by non-stimulated primary mouse keratinocytes (ELISA); assay type: cell-based
# Method: FIGS. 8A-8D: Central role for KC TRPV4 in UVB-evoked Ca^++ signaling and nocifensive behavior—ET1-related supplementary findings. (FIG. 8A) Augmentation of GSK101-evoked Ca^++ signaling by ET1. Shown are averaged Ca^++ measurements (fura-2) in response to 5 nM GSK101. Note the increase in signal in response to co-exposure to ET1. (FIG. 8B) ET1 secretion by non-stimulated 1° MK depends on TRPV4 and PLC. Shown are relative ET1 concentrations (determined by ELISA, pg/mL; vehicle-treated and WT control normalized to 100) in supernatant of non-stimulated 1° MK. Note the clear dependence on TRPV4, as indicated by a 50% reduction in Trpv4^−/− 1° MK. […] There is also down-regulation of ET1 secretion by a specific inhibitor of PLC (U73122), and by an ET-convertase inhibitor, CGS35066, which served as a control compound. In addition, PLC-inhibitor robustly affects ET1 secretion in WT and Trpv4^−/− 1° MK. (FIG. 8C) ET1 expression by UVB-exposed 1° MK depends on TRPV4 and PLC—immunocytochemistry. Shown is specific ET1 immunolabeling in 1° MK, exposed to UVB using the UVB-LEDs, as for Ca^++ imaging. Use of the UVB-LED device precluded application of a ET1 ELISA, only irradiated cells could be examined. […] (FIG. 8D) ET1 expression by UVB-exposed 1° MK depends on TRPV4 and PLC—quantification of immunocytochemistry.
# [2] = test system: primary mouse keratinocytes (1° MK); experiment: UVB-evoked Ca++ signaling in primary mouse keratinocytes (fluo-4); assay type: cell-based
# Method: Ca++ imaging of 1° MK was conducted following routine procedures. For UVB stimulation, a customized device was built. The system comprised a printed circuit board for electrical interconnects and mechanical support and an ultraviolet light-emitting diode (UV LED).
# The operating wavelength was 295 nm (FIG. 2A), with a full-width half-max of 12 nm. The optical power was 500 mW. The focal point was aimed at the plane of the upper surface of the quartz coverslip, which was used to minimize UV absorption along the optical path towards the cells (FIG. 2A-C). The optical intensity at the focal point was estimated to be 150 mW/mm^2.
# Ca++ imaging of mouse 1° MK in response to chemical activation of TRPV4 was conducted after loading with 2 μM fura2-AM, following a ratiometric Ca2+ imaging protocol with 340/380 nm […] for dual excitation. Ratios of emissions were acquired at 0.5 Hz. ΔR/R0 was determined as the fraction of the increase of a given ratio over baseline ratio, divided by baseline ratio. For stimulation of cells with UVB, where fura-2 was not suitable because of the proximity of stimulation with 340/380 nm and 295 nm, 2 μM fluo4-AM was used instead. Ca++ imaging was carried out at 488 nm excitation, acquisition of emissions at 0.5 Hz, expressed as ΔF/F0. In the custom-built UV optical system, UV LEDs were capped with a ball lens, a transparent optical window in the shape of a hemispherical lens (FIG. 2B). The LED output optical beam focused at 15-20 mm from the lens, with a spot diameter of approximately 1.5-2.0 mm (FIG. 2C). […] The thermal equilibration stage was set for physiological temperature.
# [3] = test system: mice, UVB-exposed hind paws; experiment: UVB-evoked nocifensive behavior after topical GSK205 (Hargreaves, von Frey); assay type: in vivo, mouse
# Method: Behavioral tests were performed to evaluate the decrease in withdrawal thresholds in response to mechanical von Frey hair or thermal stimuli applied to hind paws. […]. These withdrawal thresholds were ascertained before and after UV exposure. Mice were exposed using a Bio Rad Gel Doc 2000 UV transilluminator (302 nm) for 5 minutes with an exposure of 600 mJ/cm^2, 3-5 days after the last application of tamoxifen/oil.
# GSK205 topical treatment: A viscous solution of 68% EtOH/5% glycerol plus 1 mM or 5 mM GSK205 (none for control) was applied to hindpaws by rubbing in 20 μL, applied at time-points 1 hour and again 10 min before UV exposure.
# Behavioral tests were performed to evaluate the decrease in withdrawal thresholds in response to mechanical or thermal stimuli applied to hind paws. These withdrawal thresholds were ascertained before and after UVB exposure. Mice were confined by plexi-glass enclosures on top of 25×26 cm Bio Rad Gel Doc 2000 UV transilluminator (302 nm), and otherwise allowed to openly explore this environment. UV-exposure lasted for 5 minutes with an exposure of 600 mJ/cm^2.
# Hindpaw mechanical withdrawal thresholds were determined by the automated von Frey hair method, using a 0.5 mm diameter stainless steel filament, part of an automated plantar touch stimulator (Ugo Basile, Modena, Italy). Relevant detail included pre-test acclimatization in a quiet room for 30 min, conducting the test at the same time of day and blinded observers. The stimulus was delivered to the hindpaw, automatically discontinued upon withdrawal, and its intensity recorded automatically. 6-8 trials per animal were conducted, with equal exposure of both hindpaws, leading to an average withdrawal threshold. Results are reported as […], which was calculated by subtracting post-treatment from pre-treatment measurements, expressed as % or relative to 1.0.
# Hindpaw thermal (hot) withdrawal thresholds were determined by the well-established Hargreaves' method, using an infra-red thermal stimulation device that delivers the stimulus from underneath the hindpaw combined with automatic shut-off upon withdrawal (Ugo Basile). Stimulation and measurements were conducted as described for von Frey hair testing. A cutoff of 20 sec was set to prevent tissue damage.
# [4] = test system: trigeminal formalin-evoked pain behavior; conditions: dose-dependent, intradermal injection; cited from earlier work
structure (smiles),measurement,setting,value
CN(CCc1ccc(Nc2nc(-c3cccnc3)cs2)cc1)Cc1ccccc1 [GSK205],"ET1 secretion, supernatant of non-stimulated 1° MK",[1],significant down-regulation
same,UVB-evoked Ca++ signal,[2]; GSK205 20 μM,strongly down-regulated
same,ET1-augmented UVB-induced Ca++ transients,[2]; co-exposure to ET1,greatly diminished
same,delay in thermal hypersensitivity after UVB,"[3]; topical 1 mM GSK205, WT mice",~24 h
same,off-target effects on withdrawal behavior,"[3]; topical 5 mM GSK205, Trpv4−/− mice vs vehicle",did not elicit off-target effects
same,sensitivity to von Frey hair mechanical stimulation after UVB,"[3]; topical 5 mM GSK205, WT mice",significantly reduced sensitivity
same,thermally-evoked nocifensive behavior after UVB,"[3]; topical 5 mM GSK205, WT mice",sustained attenuation
same,"trigeminal formalin-evoked pain behavior, earlier study",[4],effective attenuation
